From US12077502B2, “Formulations of T-type calcium channel modulators and methods of use thereof” (PRAXIS PRECISION MEDICINES, INC., priority 2019, dated 2024)

Assay: Safety and tolerability in the essential tremor clinical study
Format: in vivo, human
Details: 20 mg then 40 mg once a day, 14 days (formulation 5), emerging data

CC(C)(C)NC(=O)CN1CCC(CNC(=O)c2cc(F)cc(Cl)c2)CC1 [compound of formula (I)]
tolerability: well tolerated
